Experimental data published in patent US10189786B2, “Antibacterial compounds” (Duke University, priority 2013, dated 2019).
Converted amounts (≈) assume the structure as drawn.

Experiments:
Format in all cases: cell-based
[1] = system: N. gonorrhoeae FA19 (a drug-sensitive strain); test: Disk diffusion assay, N. gonorrhoeae FA19; conditions: disc 6 mm; for zone of inhibition at 2 µg/disc / zone of inhibition at 20 µg/disc / zone of inhibition at 0.2 µg/disc: Neisseria gonorrhoeae, read-out: diameter of the growth inhibition, FA19
Description: (§1) An assay was performed on two strains of Acinetobacter Baumannii: antibiotic susceptible strain (Sus. A.b. Isolate), and multidrug-resistant strains (MDR A.b. Isolate). […] Activity is measured as the diameter (in mm) of the growth inhibition.

[2] = system: N. gonorrhoeae 35/02 (drug-resistant strain); test: Disk diffusion assay, N. gonorrhoeae 35/02; conditions: disc 6 mm; for zone of inhibition at 0.2 µg/disc / zone of inhibition at 2 µg/disc / zone of inhibition at 20 µg/disc: Neisseria gonorrhoeae, read-out: diameter of the growth inhibition, 35/02
Description: as §1

P. aeruginosa PAO1 = test: MIC assay, P. aeruginosa PAO1
N. gonorrhoeae H041 = test: Disk diffusion assay, N. gonorrhoeae H041; conditions: disc 6 mm; for zone of inhibition at 0.2 µg/disc / zone of inhibition at 2 µg/disc / zone of inhibition at 20 µg/disc: Neisseria gonorrhoeae, read-out: diameter of the growth inhibition, H041; for zone of inhibition at 0.2 µg/disc: H041, 0.2 μg per disc; for zone of inhibition at 2 µg/disc: H041, 2.0 μg per disc; for zone of inhibition at 20 µg/disc: H041, 20 μg per disc
Description: as §1

E. coli W3110 = test: microbe, parasite or virus in culture; conditions: wild-type E. coli W3110, 22 hours at 37° C., MTT; for MIC: Escherichia coli, W3110, 22 h
[3] = system: N. gonorrhoeae F89 (high-level cefixime and ceftriaxone resistance); test: Disk diffusion assay, N. gonorrhoeae F89; conditions: disc 6 mm; for zone of inhibition at 0.2 µg/disc / zone of inhibition at 2 µg/disc / zone of inhibition at 20 µg/disc: Neisseria gonorrhoeae, read-out: diameter of the growth inhibition, F89
Description: as §1

E. coli W3110PA = test: microbe, parasite or virus in culture; conditions: Escherichia coli, W3110PA, E. coli with native lpxC replaced by that of P. aeruginosa

Compound | zone of inhibition at 2 µg/disc ([1]; 2.0 μg per disc) [mm] | MIC (E. coli W3110) [µg/mL] | zone of inhibition at 20 µg/disc ([1]; 20 μg per disc) [mm] | zone of inhibition at 0.2 µg/disc ([1]; 0.2 μg per disc) [mm] | zone of inhibition at 0.2 µg/disc ([2]; 0.2 μg per disc) [mm] | zone of inhibition at 2 µg/disc ([2]; 2.0 μg per disc) [mm] | zone of inhibition at 20 µg/disc ([2]; 20 μg per disc) [mm] | zone of inhibition at 0.2 µg/disc (N. gonorrhoeae H041) [mm] | zone of inhibition at 2 µg/disc (N. gonorrhoeae H041) [mm] | zone of inhibition at 20 µg/disc (N. gonorrhoeae H041) [mm] | zone of inhibition at 0.2 µg/disc ([3]; 0.2 μg per disc) [mm] | zone of inhibition at 2 µg/disc ([3]; 2.0 μg per disc) [mm] | zone of inhibition at 20 µg/disc ([3]; 20 μg per disc) [mm] | further results
CC(NCCCc1ccc(-c2ccccc2)cc1)(C(=O)NO)C(C)(O)C(F)F.Cl (single isomer, unassigned) [Example 134] |  |  |  |  |  |  |  |  |  |  |  |  |  | diameter of the growth inhibition, FA19 ([1]; 0.2 μg per disc): 14 mm; diameter of the growth inhibition, FA19 ([1]; 2.0 μg per disc): 24 mm; diameter of the growth inhibition, FA19 ([1]; 20 μg per disc): 30 mm; diameter of the growth inhibition, 35/02 ([2]; 0.2 μg per disc): 12 mm; diameter of the growth inhibition, 35/02 ([2]; 2.0 μg per disc): 23 mm; diameter of the growth inhibition, 35/02 ([2]; 20 μg per disc): 28 mm; MIC P. aeruginosa PAO1 (P. aeruginosa PAO1): 2.5 µg/mL; diameter of the growth inhibition, H041 (N. gonorrhoeae H041; 0.2 μg per disc): 14 mm; diameter of the growth inhibition, H041 (N. gonorrhoeae H041; 2.0 μg per disc): 21 mm; diameter of the growth inhibition, H041 (N. gonorrhoeae H041; 20 μg per disc): 26 mm; MIC E. coli W3110 (E. coli W3110): 1.25 µg/mL; diameter of the growth inhibition, F89 ([3]; 0.2 μg per disc): 21 mm; diameter of the growth inhibition, F89 ([3]; 2.0 μg per disc): 28 mm; diameter of the growth inhibition, F89 ([3]; 20 μg per disc): 36 mm
CC(NCCCc1ccc(-c2ccccc2)cc1)(C(=O)NO)C(C)(O)C(F)F.Cl (single isomer, unassigned) [Example 135] |  |  |  |  |  |  |  |  |  |  |  |  |  | diameter of the growth inhibition, FA19 ([1]; 0.2 μg per disc): 8 mm; diameter of the growth inhibition, FA19 ([1]; 2.0 μg per disc): 19 mm; diameter of the growth inhibition, FA19 ([1]; 20 μg per disc): 26 mm; diameter of the growth inhibition, 35/02 ([2]; 0.2 μg per disc): 8 mm; diameter of the growth inhibition, 35/02 ([2]; 2.0 μg per disc): 14 mm; diameter of the growth inhibition, 35/02 ([2]; 20 μg per disc): 19 mm; MIC P. aeruginosa PAO1 (P. aeruginosa PAO1): 20 µg/mL; diameter of the growth inhibition, H041 (N. gonorrhoeae H041; 0.2 μg per disc): 8 mm; diameter of the growth inhibition, H041 (N. gonorrhoeae H041; 2.0 μg per disc): 14 mm; diameter of the growth inhibition, H041 (N. gonorrhoeae H041; 20 μg per disc): 23 mm; MIC E. coli W3110 (E. coli W3110): 10 µg/mL; diameter of the growth inhibition, F89 ([3]; 0.2 μg per disc): 15 mm; diameter of the growth inhibition, F89 ([3]; 2.0 μg per disc): 27 mm; diameter of the growth inhibition, F89 ([3]; 20 μg per disc): 30 mm
Cc1ccc(-c2ccc(CN[C@H](C(=O)NO)[C@](C)(O)C(F)F)s2)s1 [Example 7, (2S,3S)-4,4-difluoro-N,3-dihydroxy-3-methyl-2-((5′-methyl-2,2′-bithiophen-5-yl)methylamino)butanamide] | 21 | 50 (≈ 133 µM) |  |  |  |  |  |  |  |  |  |  |  | MIC (E. coli W3110PA): 25 µg/mL (≈ 66.4 µM)
C[C@@](O)(C(F)F)[C@H](NCc1ccc(-c2cccs2)s1)C(=O)NO [Example 8, (2S,3S)-2-(2,2′-bithiophen-5-ylmethylamino)-4,4-difluoro-N,3-dihydroxy-3-methylbutanamide] | 19 | 25 (≈ 69 µM) |  |  |  |  |  |  |  |  |  |  |  | MIC (E. coli W3110PA): 25 µg/mL (≈ 69 µM)
CC(NCCc1ccc(-c2ccccc2)cc1)(C(=O)NO)C(C)(O)C(F)F (stereo not shown) [Example 12, 2-(2-(biphenyl-4-yl)ethylamino)-4,4-difluoro-N,3-dihydroxy-2,3-dimethylbutanamide] | < 19 | > 40 |  |  |  |  |  |  |  |  |  |  |  | MIC (P. aeruginosa PAO1; Pseudomonas aeruginosa, PAO1, P. aeruginosa PAO1): > 40 µg/mL
CC(NCCc1ccc(-c2ccccc2)cc1)(C(=O)NO)C(C)(O)C(F)F.Cl (stereo not shown) [Example 136] |  |  |  |  |  |  |  |  |  |  |  |  |  | MIC P. aeruginosa PAO1 (P. aeruginosa PAO1): >40 µg/mL; MIC E. coli W3110 (E. coli W3110): >40 µg/mL
COc1ccc(-c2ccc(CCCN[C@H](C(=O)NO)[C@](C)(O)C(F)F)cc2)cc1 [Example 137] |  | 12 (≈ 29.4 µM) |  |  |  |  |  |  |  |  |  |  |  | 
C[C@@](O)(C(F)F)[C@H](NCCCc1ccc(-c2ccc(CN3CCOCC3)cc2)cc1)C(=O)NO [Example 138] |  | 3 (≈ 6.28 µM) |  |  |  |  |  |  |  |  |  |  |  | 
CC(O)(CF)C(C)(NCCCc1ccc(-c2ccccc2)cc1)C(=O)NO.Cl (stereo not shown) [Example 139] |  |  |  |  |  |  |  |  |  |  |  |  |  | diameter of the growth inhibition, FA19 ([1]; 0.2 μg per disc): 11 mm; diameter of the growth inhibition, FA19 ([1]; 2.0 μg per disc): 20 mm; diameter of the growth inhibition, FA19 ([1]; 20 μg per disc): 24 mm; diameter of the growth inhibition, 35/02 ([2]; 0.2 μg per disc): 7 mm; diameter of the growth inhibition, 35/02 ([2]; 2.0 μg per disc): 15 mm; diameter of the growth inhibition, 35/02 ([2]; 20 μg per disc): 22 mm; diameter of the growth inhibition, H041 (N. gonorrhoeae H041; 0.2 μg per disc): 7 mm; diameter of the growth inhibition, H041 (N. gonorrhoeae H041; 2.0 μg per disc): 14 mm; diameter of the growth inhibition, H041 (N. gonorrhoeae H041; 20 μg per disc): 21 mm; MIC E. coli W3110 (E. coli W3110): 50 µg/mL; diameter of the growth inhibition, F89 ([3]; 0.2 μg per disc): 11 mm; diameter of the growth inhibition, F89 ([3]; 2.0 μg per disc): 20 mm; diameter of the growth inhibition, F89 ([3]; 20 μg per disc): 28 mm
COc1ccc(-c2ccn(CCCNC(C)(C(=O)NO)C(C)(O)CF)c(=O)c2)cc1 (stereo not shown) [Example 140] | 13 | 100 (≈ 237 µM) | 22 |  |  |  |  |  |  |  |  |  |  | 
C[C@@](O)(C(F)F)[C@H](NCc1ccc(-c2ccccc2)cc1O)C(=O)NO [Example 141] | 21 | 50 (≈ 136 µM) | 28 | 12 | 7 | 16 | 25 | 0 | 15 | 22 | 10 | 22 | 30 | 
COc1ccc(-c2ccc(CN[C@H](C(=O)NO)[C@](C)(O)C(F)F)cc2)cc1 [Example 142] | 16 | 100 (≈ 263 µM) | 21 | 0 | 0 | 11 | 20 | 0 | 8 | 17 | 0 | 16 | 24 | 
CN1CCN(Cc2ccc(-c3ccc(CCCN[C@H](C(=O)NO)[C@](C)(O)C(F)F)cc3)cc2)CC1 [Example 144] | 0 | 50 (≈ 102 µM) | 0 | 0 | 0 | 0 | 0 | 0 | 0 | 0 | 0 | 0 | 0 | 
C[C@@](O)(C(F)F)[C@H](NCc1ccc(-c2ccc(OCCN3CCOCC3)cc2)cc1)C(=O)NO [Example 145] | 0 | 25 (≈ 52.1 µM) | 14 | 0 | 0 | 0 | 12 | 0 | 7 | 11 | 0 | 7 | 21 | 
COc1cc(-c2ccccc2)ccc1CN[C@H](C(=O)NO)[C@](C)(O)C(F)F [Example 146] | 10 |  | 25 | 0 | 0 | 0 | 16 | 0 | 8 | 19 | 0 | 11 | 27 | 
C[C@@](O)(C(F)F)[C@H](NC/C=C/c1ccc(-c2ccccc2)cc1)C(=O)NO [Example 147] | 28 |  | 32 | 22 | 17 | 28 | 34 | 14 | 30 | 35 | 28 | 33 | 38 | 
CC(NCCCc1ccc(-c2ccccc2)cc1)(C(=O)NO)C(O)(CF)CF (stereo not shown) [Example 148] | 19 |  | 27 | 12 | 0 | 17 | 24 | 9 | 15 | 24 | 13 | 19 | 27 | 
C[C@@](O)(C(F)F)[C@H](NCc1ccc2cc(-c3ccccc3)ccc2c1)C(=O)NO [Example 149] | 22 |  | 26 | 15 | 11 | 22 | 25 | 10 | 24 | 27 | 19 | 24 | 30 | 
